Results taken from ChEMBL document CHEMBL1158434, “Discovery of a potent and brain penetrant mGluR5 positive allosteric modulator” (Bioorg Med Chem Lett, 2009).
In brackets after ≈: the same amount, converted by molar mass. One block for each compound: values may come before it. Activity calls are given as the source filed them. The calls are words filed in the database; no cut-off is given here.

How the values were obtained:
[1] = target: T1, Metabotropic glutamate receptor 5 (Homo sapiens, UniProt P41594); test: Agonist activity at human mGluR5 transiently transfected in BHK cells assessed as potentiation of L-glutamate-induced calcium flux by FLIPR assay; format: functional, cell-based
Target sequence in this assay (P41594 whole entry): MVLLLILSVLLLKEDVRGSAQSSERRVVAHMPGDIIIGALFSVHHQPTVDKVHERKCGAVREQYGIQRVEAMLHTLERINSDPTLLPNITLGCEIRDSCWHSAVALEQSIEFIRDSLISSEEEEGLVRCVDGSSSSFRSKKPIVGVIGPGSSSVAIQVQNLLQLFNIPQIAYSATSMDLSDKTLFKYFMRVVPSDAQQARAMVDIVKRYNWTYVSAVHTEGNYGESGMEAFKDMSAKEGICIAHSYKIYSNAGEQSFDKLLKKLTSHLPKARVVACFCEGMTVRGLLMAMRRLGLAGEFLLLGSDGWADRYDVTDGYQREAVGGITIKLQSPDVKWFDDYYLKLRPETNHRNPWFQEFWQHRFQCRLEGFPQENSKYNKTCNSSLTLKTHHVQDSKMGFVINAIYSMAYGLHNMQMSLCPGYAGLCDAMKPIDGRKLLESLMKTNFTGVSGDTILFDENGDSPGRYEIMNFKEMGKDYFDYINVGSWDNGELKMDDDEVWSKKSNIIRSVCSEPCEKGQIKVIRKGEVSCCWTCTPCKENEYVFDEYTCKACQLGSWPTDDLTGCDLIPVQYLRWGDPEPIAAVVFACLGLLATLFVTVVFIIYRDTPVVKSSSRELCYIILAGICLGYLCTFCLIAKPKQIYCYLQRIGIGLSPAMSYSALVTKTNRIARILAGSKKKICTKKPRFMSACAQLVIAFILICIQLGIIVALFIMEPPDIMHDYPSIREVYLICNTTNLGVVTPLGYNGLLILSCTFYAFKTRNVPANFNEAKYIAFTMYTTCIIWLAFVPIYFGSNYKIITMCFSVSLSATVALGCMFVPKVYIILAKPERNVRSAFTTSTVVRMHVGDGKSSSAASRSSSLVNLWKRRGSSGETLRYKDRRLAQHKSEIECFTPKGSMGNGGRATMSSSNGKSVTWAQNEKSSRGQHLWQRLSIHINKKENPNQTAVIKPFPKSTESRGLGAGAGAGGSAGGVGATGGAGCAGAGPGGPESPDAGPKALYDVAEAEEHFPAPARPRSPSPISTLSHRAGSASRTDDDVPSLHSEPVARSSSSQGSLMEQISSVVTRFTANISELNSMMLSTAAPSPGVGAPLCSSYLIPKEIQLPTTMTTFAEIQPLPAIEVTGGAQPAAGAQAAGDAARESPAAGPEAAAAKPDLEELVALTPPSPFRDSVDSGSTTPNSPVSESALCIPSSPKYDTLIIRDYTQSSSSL

[2] = target: T1, Metabotropic glutamate receptor 5; test: Agonist activity at human mGluR5 transiently transfected in BHK cells assessed as potentiation of L-glutamate-induced calcium flux at 10 uM by FLIPR assay
Target sequence in this assay (P41594 whole entry): as above

[3] = Elimination half life in Lister Hooded rat at 2.5 mg/kg, po; format: ADME, organism-based; parameters: dose 2.5 mg/kg, route oral; details: in vivo, read-out: beta t1/2 (converted)
[4] = Elimination half life in C57/6J mouse at 5 mg/kg, po; format: ADME, organism-based; parameters: dose 5 mg/kg, route oral; details: in vivo, read-out: beta t1/2 (converted)
[5] = target: T1, Metabotropic glutamate receptor 5; test: Agonist activity at human mGluR5 transiently transfected in BHK cells assessed as potentiation of L-glutamate-induced calcium flux at 100 nM by FLIPR assay; format: functional, cell-based
Target sequence in this assay (P41594 21-1212 limits assumed): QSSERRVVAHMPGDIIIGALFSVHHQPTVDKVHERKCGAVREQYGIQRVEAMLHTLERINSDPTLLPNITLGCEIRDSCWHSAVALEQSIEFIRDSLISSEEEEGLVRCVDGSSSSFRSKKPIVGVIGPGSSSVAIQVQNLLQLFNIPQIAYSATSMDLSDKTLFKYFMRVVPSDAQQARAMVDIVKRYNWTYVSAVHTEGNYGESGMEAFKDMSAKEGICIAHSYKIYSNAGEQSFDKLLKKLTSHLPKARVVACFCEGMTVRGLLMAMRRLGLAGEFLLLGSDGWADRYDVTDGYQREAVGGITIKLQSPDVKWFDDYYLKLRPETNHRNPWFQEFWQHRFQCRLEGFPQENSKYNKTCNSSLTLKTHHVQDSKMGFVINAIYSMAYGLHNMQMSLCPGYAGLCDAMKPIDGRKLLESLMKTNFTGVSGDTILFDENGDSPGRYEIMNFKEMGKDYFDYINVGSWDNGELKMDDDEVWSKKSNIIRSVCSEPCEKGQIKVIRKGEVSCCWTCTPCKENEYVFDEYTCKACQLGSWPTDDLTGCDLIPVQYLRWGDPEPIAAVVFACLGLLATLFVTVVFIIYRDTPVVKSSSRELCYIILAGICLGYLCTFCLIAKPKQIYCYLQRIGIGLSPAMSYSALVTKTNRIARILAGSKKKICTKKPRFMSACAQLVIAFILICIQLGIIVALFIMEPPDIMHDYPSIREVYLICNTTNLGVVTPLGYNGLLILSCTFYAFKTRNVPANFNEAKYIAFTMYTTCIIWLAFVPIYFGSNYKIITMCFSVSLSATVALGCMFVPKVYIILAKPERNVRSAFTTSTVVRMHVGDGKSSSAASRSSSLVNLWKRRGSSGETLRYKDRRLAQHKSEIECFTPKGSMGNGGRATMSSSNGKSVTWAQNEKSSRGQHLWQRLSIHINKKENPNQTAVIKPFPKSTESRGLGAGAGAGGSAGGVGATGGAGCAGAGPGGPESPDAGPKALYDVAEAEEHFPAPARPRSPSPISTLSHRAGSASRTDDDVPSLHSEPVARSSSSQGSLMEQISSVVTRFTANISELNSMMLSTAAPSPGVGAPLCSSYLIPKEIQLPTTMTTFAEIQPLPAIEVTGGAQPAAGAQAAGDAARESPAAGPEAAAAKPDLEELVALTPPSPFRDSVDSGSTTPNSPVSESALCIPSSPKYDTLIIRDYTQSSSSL

[6] = target: T1, Metabotropic glutamate receptor 5; test: Potentiation of [3H]quisqualic acid binding to human recombinant mGluR5 expressed in BHK cells at >1 uM by radioligand binding assay; format: cell-based
Target sequence in this assay (P41594 21-1212 limits assumed): as above

[7] = target: T1, Metabotropic glutamate receptor 5; test: Activity at human mGluR5 transiently transfected in BHK cells assessed as decrease in maximum response of L-glutamate for calcium flux at 0.60 uM by FLIPR assay; format: functional, cell-based
Target sequence in this assay (P41594 21-1212 limits assumed): as above

[8] = target: T1, Metabotropic glutamate receptor 5; test: Displacement of [3H]quisqualic acid from human recombinant mGluR5 expressed in BHK cells by radioligand binding assay; format: cell-based
Target sequence in this assay (P41594 21-1212 limits assumed): as above

[9] = Ratio of drug level in brain to plasma in Lister Hooded rat at 2.5 mg/kg, po by turboflow chromatography; format: ADME, organism-based; parameters: dose 2.5 mg/kg, route oral; details: brain and plasma
[10] = target: Metabotropic glutamate receptor 1 (Homo sapiens) (UniProt Q13255); test: Agonist activity at mGluR1 at 10 uM; format: functional
[11] = target: Metabotropic glutamate receptor 1 (Homo sapiens) (UniProt Q13255); test: Antagonist activity at mGluR1 at 10 uM; format: functional
[12] = Aqueous solubility at pH 7.4; format: physicochemical; details: aqueous medium
[13] = target: T1, Metabotropic glutamate receptor 5; test: Agonist activity at human mGluR5 transiently transfected in BHK cells assessed as potentiation of L-glutamate-induced calcium flux at 1000 nM by FLIPR assay; format: functional, cell-based
Target sequence in this assay (P41594 21-1212 limits assumed): as above

[14] = target: T1, Metabotropic glutamate receptor 5; test: Displacement of [3H]MPEP from human recombinant mGluR5 expressed in BHK cells at by radioligand binding assay; format: cell-based
Target sequence in this assay (P41594 whole entry): as the sequence (P41594 whole entry) above

[15] = target: Metabotropic glutamate receptor 1 (Homo sapiens) (UniProt Q13255); test: Allosteric modulation of mGluR1 at 10 uM
[16] = Ratio of drug level in brain to plasma in C57/6J mouse at 5 mg/kg, po by turboflow chromatography; format: ADME, organism-based; parameters: dose 5 mg/kg, route oral; details: brain and plasma
[17] = target: T1, Metabotropic glutamate receptor 5; test: Agonist activity at human mGluR5 transiently transfected in BHK cells assessed as 5.5 fold decrease in L-glutamate EC50 for induction of calcium flux at 1 uM by FLIPR assay
Target sequence in this assay (P41594 21-1212 limits assumed): as the sequence (P41594 21-1212 limits assumed) above

[18] = target: T1, Metabotropic glutamate receptor 5; test: Agonist activity at human mGluR5 transiently transfected in BHK cells assessed as potentiation of L-glutamate-induced calcium flux by FLIPR assay relative to L-glutamate; format: functional, cell-based

Metabotropic glutamate receptor 1 (Homo sapiens), sequence (Q13255 19-1194 limits assumed): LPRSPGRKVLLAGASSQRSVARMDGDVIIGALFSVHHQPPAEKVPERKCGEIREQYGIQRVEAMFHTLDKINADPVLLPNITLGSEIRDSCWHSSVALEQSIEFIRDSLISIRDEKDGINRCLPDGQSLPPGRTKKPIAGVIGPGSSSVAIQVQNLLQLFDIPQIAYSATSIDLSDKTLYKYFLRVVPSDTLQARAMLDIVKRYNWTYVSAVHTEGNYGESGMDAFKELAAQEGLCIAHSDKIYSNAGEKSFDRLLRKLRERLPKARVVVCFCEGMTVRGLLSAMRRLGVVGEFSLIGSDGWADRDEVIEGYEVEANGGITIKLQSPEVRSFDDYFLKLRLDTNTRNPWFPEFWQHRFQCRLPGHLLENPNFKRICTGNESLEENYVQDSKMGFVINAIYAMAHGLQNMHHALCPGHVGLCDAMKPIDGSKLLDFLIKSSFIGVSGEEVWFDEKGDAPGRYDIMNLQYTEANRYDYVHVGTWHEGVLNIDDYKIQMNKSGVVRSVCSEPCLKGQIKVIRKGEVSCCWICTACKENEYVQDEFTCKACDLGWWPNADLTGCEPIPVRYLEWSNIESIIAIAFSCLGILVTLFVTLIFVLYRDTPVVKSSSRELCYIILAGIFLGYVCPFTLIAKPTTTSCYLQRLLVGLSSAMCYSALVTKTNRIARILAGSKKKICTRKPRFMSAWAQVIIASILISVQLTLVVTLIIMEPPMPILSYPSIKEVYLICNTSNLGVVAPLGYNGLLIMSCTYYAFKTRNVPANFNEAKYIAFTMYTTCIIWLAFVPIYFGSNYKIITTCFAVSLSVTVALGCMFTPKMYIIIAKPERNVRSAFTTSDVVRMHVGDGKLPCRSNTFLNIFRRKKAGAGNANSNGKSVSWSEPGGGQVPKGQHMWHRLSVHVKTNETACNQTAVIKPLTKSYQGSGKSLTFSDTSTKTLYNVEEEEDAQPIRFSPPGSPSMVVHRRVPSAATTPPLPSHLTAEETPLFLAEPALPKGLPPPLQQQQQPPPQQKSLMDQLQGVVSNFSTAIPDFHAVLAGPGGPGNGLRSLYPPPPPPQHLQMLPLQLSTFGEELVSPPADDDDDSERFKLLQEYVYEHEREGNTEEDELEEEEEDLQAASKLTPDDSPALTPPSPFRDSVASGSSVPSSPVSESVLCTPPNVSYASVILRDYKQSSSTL

EC50 [1]: 1.6 µM
Structure (SMILES): CN1CCN(C(=O)c2ccc(C#Cc3ccccc3)nc2)CC1

EC50 [2]: Not Active
Structure (SMILES): CCOC(=O)c1ccc(C#Cc2ccccc2)nc1

EC50 [1]: 0.28 µM
Structure (SMILES): O=C(c1ccc(C#Cc2ccccc2)nc1)N1CCCCC1

EC50 [1]: 0.72 µM
Structure (SMILES): CC1CCN(C(=O)c2ccc(C#Cc3ccccc3)cc2)CC1

half-life [3]: 4 h
half-life [4]: 1 h
Activity [5]: Active
Activity [6]: 30%
Activity [7]: Active
Activity [8]: inactive
Kp [9]: 0.3
Activity [10]: inactive
Activity [11]: inactive
solubility [12]: 1.7 µM (≈ 0.494 µg/mL)
Activity [13]: Active
Ki [14]: 1.8 µM
Activity [15]: inactive
Kp [16]: 0.5
EC50 [1]: 0.03 µM
Activity [17]: Active
Structure (SMILES): O=C(NC1CCCC1)c1ccc(C#Cc2ccccc2)nc1

EC50 [1]: 0.24 µM
Structure (SMILES): O=C(NC1CCCCC1)c1ccc(C#Cc2ccccc2)nc1

EC50 [1]: 0.13 µM
Structure (SMILES): CC1CCN(C(=O)c2ccc(C#Cc3ccccc3)nc2)CC1

EC50 [1]: 6.6 µM
Structure (SMILES): NC(=O)c1ccc(C#Cc2ccccc2)nc1

EC50 [1]: 1.2 µM
Structure (SMILES): O=C(NCc1ccsc1)c1ccc(C#Cc2ccccc2)cc1

EC50 [1]: 0.99 µM
Structure (SMILES): O=C(c1ccc(C#Cc2ccccc2)nc1)N1CCOCC1

EC50 [1]: 0.51 µM
Structure (SMILES): CC(C)CCNC(=O)c1ccc(C#Cc2ccccc2)nc1

EC50 [1]: 0.14 µM
Structure (SMILES): O=C(NCc1ccsc1)c1ccc(C#Cc2ccccc2)nc1

EC50 [1]: 0.046 µM
Structure (SMILES): O=C(c1ccc(C#Cc2ccccc2)nc1)N1CCSCC1

EC50 [1]: 1.2 µM
Structure (SMILES): CC1CCC(NC(=O)c2ccc(C#Cc3ccccc3)nc2)CC1 (stereo not drawn)

EC50 [1]: 0.18 µM
Structure (SMILES): O=C(NCc1ccco1)c1ccc(C#Cc2ccccc2)nc1

Activity [18]: 73%
EC50 [1]: 0.97 µM
Structure (SMILES): C(#Cc1ccc(C(N2CCOCC2)N2CCOCC2)cc1)c1ccccc1

EC50 [1]: 3.1 µM
Structure (SMILES): CN1CCN(C(=O)c2ccc(C#Cc3ccccc3)cc2)CC1
